Experimental findings from patent publication US8003649B2 (AstraZeneca AB, priority 2007, dated 2011) are described below.

The structures appear in SMILES notation.

The assay deals with T1, Androgen Receptor (AR) (Homo sapiens, UniProt P10275, T878A).
T1 construct: cell based immuno-fluorescence assay using the LNCaP prostate epithelial cell line; endogenous in cells; host or cells: LNCaP clone FGC (ATCC CRL-1740)
T1 sequence (P10275 1-920 T878A): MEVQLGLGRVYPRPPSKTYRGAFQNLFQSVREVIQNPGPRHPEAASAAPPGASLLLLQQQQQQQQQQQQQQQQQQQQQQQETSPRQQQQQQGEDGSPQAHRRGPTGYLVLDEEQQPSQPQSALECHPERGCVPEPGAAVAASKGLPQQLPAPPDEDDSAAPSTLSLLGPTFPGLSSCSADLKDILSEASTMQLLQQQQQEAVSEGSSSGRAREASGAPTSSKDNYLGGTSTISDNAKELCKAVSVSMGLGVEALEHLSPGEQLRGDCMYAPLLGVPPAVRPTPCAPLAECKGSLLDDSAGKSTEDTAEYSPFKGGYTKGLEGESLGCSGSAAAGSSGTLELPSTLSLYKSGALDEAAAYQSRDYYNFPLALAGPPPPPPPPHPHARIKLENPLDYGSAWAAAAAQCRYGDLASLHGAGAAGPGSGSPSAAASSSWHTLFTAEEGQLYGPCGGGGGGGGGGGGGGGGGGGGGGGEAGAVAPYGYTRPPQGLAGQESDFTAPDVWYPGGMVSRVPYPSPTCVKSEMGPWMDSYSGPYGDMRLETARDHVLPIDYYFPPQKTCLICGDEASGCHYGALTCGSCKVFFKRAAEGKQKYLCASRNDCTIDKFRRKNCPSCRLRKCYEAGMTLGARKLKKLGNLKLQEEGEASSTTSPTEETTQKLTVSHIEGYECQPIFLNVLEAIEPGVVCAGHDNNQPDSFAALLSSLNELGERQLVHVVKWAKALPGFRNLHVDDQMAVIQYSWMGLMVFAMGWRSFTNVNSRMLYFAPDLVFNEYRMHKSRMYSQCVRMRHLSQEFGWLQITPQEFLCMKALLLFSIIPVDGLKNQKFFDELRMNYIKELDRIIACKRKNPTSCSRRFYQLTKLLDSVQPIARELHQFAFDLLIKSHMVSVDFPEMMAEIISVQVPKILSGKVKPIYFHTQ
Put plainly: LNCaP Androgen Receptor Down-regulation Cell Assay (immunofluorescence end point). Conditions: LNCaP prostate carcinoma cells, compound incubation 20-22 hours, 50% reduction of the AR signal; read-out: Androgen Receptor Down-regulation Assay (a) IC50/μM. It is filed as cell-based. In outline: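 AR loss reported as IC50 from curve fits of fluorescence dose-response data, with AR immunostained and read by laser-scanning cytometry. Compound exposure was 20-22 h at 37° C in LNCaP cells grown in 5% charcoal-stripped FBS and plated overnight beforehand.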
For the molecule `FC(F)(F)c1nnc2ccc(N3CCN(Cc4cccc5c4OCO5)CC3)nn12` [Example 102, 6-[4-(1,3-benzodioxol-4-ylmethyl)piperazin-1-yl]-3-(trifluoromethyl)-[1,2,4]triazolo[4,3-b]pyridazine], the DC50 was 2.9 µM.

On to `O=C(c1ccc(C2CCN(c3ccc4nnc(C(F)(F)F)n4n3)CC2)cc1)N1CCNCC1` [Example 636], for which the DC50 amounted to 20 µM.

For the molecule `Fc1cncc(C2CCN(c3ccc4nnc(C(F)(F)F)n4n3)CC2)c1` [Example 612], the DC50 was greater than 13 µM.

On to `CN1CCN(C(=O)c2cccc(OC3CCN(c4ccc5nnc(C(F)(F)F)n5n4)CC3)c2)CC1` [Example 687], for which the DC50 stood at 3.8 µM.

For the molecule `FC(F)(F)c1nnc2ccc(N3CCC(COc4cccc(Cl)c4)CC3)nn12` [Example 473], the DC50 came out at 3.2 µM.

Regarding `Cn1c(CN2CCN(c3ccc4nnc(C(F)(F)F)n4n3)CC2)cc2ccccc21` [Example 69, 6-[4-[(1-methylindol-2-yl)methyl]piperazin-1-yl]-3-(trifluoromethyl)-[1,2,4]triazolo[4,3-b]pyridazine], the DC50 was found to be 1.4 µM.

Turning to `FC(F)(F)c1nnc2ccc(N3CCC(c4ccc(OCc5cnco5)cc4)CC3)nn12` [Example 734], the DC50 came to 2.5 µM.

Regarding `COc1ccc(CN2CCN(c3ccc4nnc(C(F)(F)F)n4c3)CC2)cc1` [Example 192, 6-[4-[(4-methoxyphenyl)methyl]piperazin-1-yl]-3-(trifluoromethyl)-[1,2,4]triazolo[4,3-a]pyridine], the DC50 was determined as 8.7 µM.

As for `Nc1cccc(C2CCN(c3ccc4nnc(C(F)(F)F)n4n3)CC2)c1` [Example 616, 3-[1-[3-(trifluoromethyl)[1,2,4]triazolo[4,3-b]pyridazin-6-yl]piperidin-4-yl]aniline], the DC50 is 1.7 µM.

As for `CS(=O)(=O)c1ccccc1CN1CCN(c2ccc3nnc(C(F)(F)F)n3n2)CC1` [Example 57, 6-[4-[(2-methylsulfonylphenyl)methyl]piperazin-1-yl]-3-(trifluoromethyl)-[1,2,4]triazolo[4,3-b]pyridazine], the DC50 was determined as 4.3 µM.

As for `Fc1cc(CN2CCN(c3ccc4nnc(C(F)(F)F)n4n3)CC2)cc(C(F)(F)F)c1` [Example 760], the DC50 is greater than 3.1 µM.

As to `Fc1ccc(CN[C@H]2[C@@H]3CN(c4ccc5nnc(C(F)(F)F)n5n4)C[C@@H]32)cc1` [Example 554, (1α,5α,6α) N-(4-fluorobenzyl)-3-[3-(trifluoromethyl)[1,2,4]triazolo[4,3-b]pyridazin-6-yl]-3-azabicyclo[3.1.0]hexan-6-amine], the DC50 is 4.9 µM.

Turning to `COc1cccc(OCC2CCN(c3ccc4nnc(C(F)(F)F)n4n3)CC2)c1` [Example 466], the DC50 was greater than 19 µM.

`O=C(c1ccc(N2CCN(c3ccc4nnc(C(F)(F)F)n4n3)CC2)cc1)N1CCOCC1` [Example 749]: the DC50 is greater than 22 µM.

As for `COc1cccc(C2(O)CCN(c3ccc4nnc(C(F)(F)F)n4n3)CC2)c1` [Example 312], the DC50 was 2.6 µM.

With `COc1ccccc1OCC1CCN(c2ccc3nnc(C(F)(F)F)n3n2)CC1` [Example 462], the DC50 worked out at 7.7 µM.

Regarding `Fc1cc(CN2CCN(c3ccc4nnc(C(F)(F)F)n4n3)CC2)cc(C(F)F)c1` [Example 783, 6-[4-[3-(difluoromethyl)-5-fluorobenzyl]piperazin-1-yl]-3-(trifluoromethyl)[1,2,4]triazolo[4,3-b]pyridazine], the DC50 stood at 0.84 µM.

As for `Fc1ccccc1OCC1CCN(c2ccc3nnc(C(F)(F)F)n3n2)CC1` [Example 467], the DC50 is 4.9 µM.

As for `FC(F)(F)c1nnc2ccc(N3CCN(CCc4ccc(Cl)cc4)CC3)nn12` [Example 231], the DC50 turned out to be 2.1 µM.

Consider `OC1(c2cccc(F)c2)CCN(c2ccc3nnc(C(F)(F)F)n3n2)CC1` [Example 310, 4-(3-fluorophenyl)-1-[3-(trifluoromethyl)[1,2,4]triazolo[4,3-b]pyridazin-6-yl]piperidin-4-ol], for which the DC50 was determined as 3.2 µM.

`FC(F)(F)c1nnc2ccc(N3CCN(Cc4cccnc4Br)CC3)nn12` [Example 376]: the DC50 was determined as 3 µM.

As for `O=C(c1ccc2[nH]cc(C3CCN(c4ccc5nnc(C(F)(F)F)n5n4)CC3)c2c1)N1CCOCC1` [Example 502], the DC50 is 2.2 µM.

`FC(F)(F)c1nnc2ccc(N3CCC(c4ccncc4)CC3)nn12` [Example 540]: the DC50 stood at 1.5 µM.

Take `COCCCC(=O)Nc1cccc(C2CCN(c3ccc4nnc(C(F)(F)F)n4n3)CC2)c1` [Example 662, 4-methoxy-N-[3-[1-(3-(trifluoromethyl)-[1,2,4]triazolo[4,3-b]pyridazin-6-yl)piperidin-4-yl]phenyl]butanamide]: the DC50 came out at 5.4 µM.

Take `CCCCOc1ccc(CN2CCN(c3ccc4nnc(C(F)(F)F)n4n3)CC2)cc1` [Example 109, 6-[4-[(4-butoxyphenyl)methyl]piperazin-1-yl]-3-(trifluoromethyl)-[1,2,4]triazolo[4,3-b]pyridazine]: the DC50 is 7.2 µM.

`Fc1cccc(CN2CCN(c3ccc4nnc(C(F)(F)F)n4n3)CC2)c1C(F)F` [Example 781, 6-[4-[2-(difluoromethyl)-3-fluorobenzyl]piperazin-1-yl]-3-(trifluoromethyl)[1,2,4]triazolo[4,3-b]pyridazine]: the DC50 is 0.82 µM.

Regarding `FC(F)(F)c1nnc2ccc(N3CCN(Cc4ccc(-c5cccnc5)cc4)CC3)nn12` [Example 117, 6-[4-[(4-pyridin-3-ylphenyl)methyl]piperazin-1-yl]-3-(trifluoromethyl)-[1,2,4]triazolo[4,3-b]pyridazine], the DC50 came out at 1.7 µM.

For `N#Cc1cc(CN2CCN(c3ccc4nnc(C(F)F)n4n3)CC2)ccc1F` [Example 260], the DC50 was 5.6 µM.

With `FC(F)(Cl)c1nnc2ccc(N3CCN(Cc4cccs4)CC3)nn12` [Example 356, 3-[chloro(difluoro)methyl]-6-[4-(thiophen-2-ylmethyl)piperazin-1-yl][1,2,4]triazolo[4,3-b]pyridazine], the DC50 turned out to be 2.2 µM.

In the case of `FC(F)(F)c1nnc2ccc(N3CCN(Cc4n[nH]c5ccccc45)CC3)nn12` [Example 285, 6-[4-(1H-indazol-3-ylmethyl)piperazin-1-yl]-3-(trifluoromethyl)[1,2,4]triazolo[4,3-b]pyridazine], the DC50 turned out to be 2.7 µM.

In the case of `FC(F)(F)c1cccc(CN2CCCN(c3ccc4nnc(C(F)(F)F)n4n3)CC2)c1` [Example 179, 3-(trifluoromethyl)-6-[4-[[3-(trifluoromethyl)phenyl]methyl]-1,4-diazepan-1-yl]-[1,2,4]triazolo[4,3-b]pyridazine], the DC50 worked out at 0.59 µM.

Take `FC(F)(F)c1nnc2ccc(N3CCC(Oc4cccnc4)CC3)nn12` [Example 718]: the DC50 came to 3.6 µM.

On to `O=C(c1ccc(C2CCN(c3ccc4nnc(C(F)(F)F)n4n3)CC2)cc1)N1CCOCC1` [Example 635], for which the DC50 was 2.9 µM.

For `FC(F)(F)c1nnc2ccc(N3CCN(Cc4ccc(N5CCCC5)cc4)CC3)nn12` [Example 113, 6-[4-[(4-pyrrolidin-1-ylphenyl)methyl]piperazin-1-yl]-3-(trifluoromethyl)-[1,2,4]triazolo[4,3-b]pyridazine], the DC50 turned out to be 7.1 µM.

Turning to `C[C@H]1CN(Cc2ccc(F)cc2)CCN1c1ccc2nnc(C(F)(F)F)n2n1` [Example 597], the DC50 came out at 2.9 µM.

`FC(F)c1nnc2ccc(N3CCN(Cc4csc5ccccc45)CC3)nn12` [Example 264]: the DC50 was 0.95 µM.

`COCCCC(=O)Nc1ccc(C2CCN(c3ccc4nnc(C(F)(F)F)n4n3)CC2)cc1` [Example 669]: the DC50 is 0.6 µM.

Turning to `FC(F)(F)c1nnc2ccc(N3CCC(Oc4ccc(OCCCN5CCNCC5)cc4)CC3)nn12` [Example 433], the DC50 was found to be 0.9 µM.

Regarding `FC(F)(F)c1cccc(CN2CCN(c3ccc4nnc(C(F)(F)Cl)n4n3)CC2)c1` [Example 347], the DC50 is 0.97 µM.

For `CC(C)Oc1ccc(CN2CCN(c3ccc4nnc(C(F)(F)F)n4n3)CC2)cn1` [Example 148, 6-[4-[(6-propan-2-yloxypyridin-3-yl)methyl]piperazin-1-yl]-3-(trifluoromethyl)-[1,2,4]triazolo[4,3-b]pyridazine], the DC50 was 3.4 µM.

As for `Fc1cccc(CN2CCN(c3ccc4nnc(C(F)F)n4n3)CC2)c1C(F)F` [Example 782, 3-(difluoromethyl)-6-[4-[2-(difluoromethyl)-3-fluorobenzyl]piperazin-1-yl][1,2,4]triazolo[4,3-b]pyridazine], the DC50 worked out at 2 µM.
